Experimental data reported in patent publication US20120269870A1, “SWITCHABLE POLYMERS AND SURFACES WITH REVERSIBLY SWITCHABLE PROPERTIES” (University of Washington through its Center for …, priority 2011, published 2012).

Assay: Kinetic study between CB—OH and CB-Ring by 1H NMR
Assay type: physicochemical
Settings: for half-life of CB-Ring (hydrolysis to CB—OH): buffer
Description: Kinetic study between CB—OH and CB-Ring. The equilibrium conversion between the CB—OH and CB-Ring was monitored by ^1H NMR at various time points. To monitor the formation of CB-Ring, CB—OH powder was initially dissolved in TFA-d at a concentration of 0.2 M. The conversion from CB-Ring to CB—OH was studied by dissolving CB-Ring in either pH 7.3 or pH 10 buffer at a concentration of 0.2 M. These two buffers were made from 200 mM Na2CO3 in D2O and were titrated with DCl. Conversion was calculated based on the ratio of the characteristic peak for CB-Ring (1H, CH2═C(CH3)COOCH2CH(O—)CH2—) and a common peak of both structures (6H, —CH2N(CH3)2CH2—). In FIG. 5, the final conversion within 160 min was about 93% for all three conditions investigated. Because the integration error for ^1H NMR can be as large as 10%, a value of 93% essentially represented an almost full conversion.
Kinetic study between CB—OH and CB-Ring in acetic acid/pH=7.3 buffer. ^1H NMR was used to monitor the equilibrium conversion between the CB—OH and CB-Ring. CB—OH monomer was initially dissolved in [D]acetic acid at a concentration of 0.2 M. At various time points, the spectra were collected, and composition for the formed CB-Ring was calculated based on the ratio of the characteristic peaks for CB-Ring and CB—OH (FIG. 16). The equilibrated product (a mixture of CB-Ring and CB—OH) in [D]acetic acid was precipitated in ethyl ether, vacuum dried, and placed into pH=7.3 buffer made from 200 mM Na2CO3 in D2O titrated with DCl. CB-Ring was hydrolyzed to CB—OH at this condition and the composition for the CB-Ring at various time points were measured (FIG. 16).

Row | conversion of CB—OH to CB-ring (in words) (TFA, 1 h) | time to full conversion into the CB-Ring structure (TFA-d) [h] | half-life at 0.2 M (TFA-d solution, acidic environment, TFA-d / TFA, read-out: half-life of CB—OH (conversion to CB-Ring)) [min] | final conversion to CB-Ring within 160 min (TFA-d, 0.2 M) | conversion of CB—OH to CB-Ring ([D]HAc (acetic acid), 0.2 M, 20 h) [%] | SMILES | half-life of CB-Ring (hydrolysis to CB—OH) (pH 7) | half-life of CB-Ring (hydrolysis to CB—OH) (pH 10) [min] | final conversion to CB—OH within 160 min (pH 7.3 buffer (200 mM Na2CO3 in D2O titrated with DCl)) | time to nearly full conversion (hydrolysis) of CB-Ring back to CB—OH (pH 7.3 buffer, product equilibrated 40 h in [D]HAc) | time to complete conversion to the zwitterionic form (pH 10) | final conversion to CB—OH within 160 min (pH 10 buffer (200 mM Na2CO3 in D2O titrated with DCl))
1 | – | – | – | – | – | C=C(C)C(=O)OCC1C[N+](C)(C)CC(=O)O1 (centres unmarked) [CB-Ring, 2-(Methacryloyloxymethyl)-4,4-dimethyl-6-oxomorpholin-4-ium] | about 4 min | < 1 | about 93% | less than 10 min | less than 6 min | about 93%
2 | almost complete conversion | ≤ 2 | ~14 | about 93% | 50 | C=C(C)C(=O)OCC(O)C[N+](C)(C)CC(=O)[O-] (centres unmarked) [CB—OH, 2-((2-Hydroxy-3-(methacryloyloxy)propyl)dimethylammonio)acetate] | – | – | – | – | – | –
